The record followed here is patent publication US20150125506A1, “RETINAL PIGMENT EPITHELIAL CELLS DIFFERENTIATED FROM EMBRYONIC STEM CELLS WITH NICOTINAMIDE AND ACTIVIN A” (HADASIT MEDICAL RESEARCH SERVICES AND DEVELOPMENT LTD., priority 2007, published 2015).

One experiment has as its system hESCs. As to the kind of experiment: Differentiation of hESC free-floating clusters into pigmented (RPE) cells, counted as pigmented clusters and cells. The class given is cell-based, human. The conditions noted are these: for appearance of clusters harboring pigmented cells: factor added in presence of NA. As for the experimental part: Human ESC (HES1 cell line) and hESCs engineered by lentiviral vector to constitutively express eGFP [Gropp M, Itsykson P, Singer O, Ben-Hur T, Reinhartz E, Galun E, and Reubinoff B E. Stable genetic modification of human embryonic stem cells by lentiviral vectors. Molecular Therapy 7:281-7 (2003)] were cultured on human foreskin fibroblasts feeder layers in KO medium (KOM) consisting of 86% KO-DMEM (Gibco, Invitrogen, Gaithersburg, Md.), 14% KOSR (Gibco), 1 mM glutamine, 1% nonessential amino acids, 50 units/ml penicillin (Gibco), 50 μg/ml streptomycin, (Gibco) and 4 ng/ml bFGF (R&D Systems, Inc., Minneapolis, Minn.). hES cells were weekly passaged with type IV collagenase (1 mg/ml; Gibco) and plated onto a fresh feeder layer. A week before induction of differentiation, the cells were passaged by dissociation into nearly a single-cell suspension with Ca/Mg^++-free PBS supplemented with 0.05% EDTA (Biological Industries, Beit Haemek, Israel) and were re-plated on the feeders.
(§1) Six-eight days after plating the hES cells that were dissociated into single cells as above; they were removed from the feeders by treatment with type IV collagenase. The clumps were cultured for various periods up to 12 weeks in suspension within bacteriological dishes precoated with 0.1% low melting temperature agarose in KO medium (KOM) consisting of 86% KO-DMEM, 14% KOSR, 1 mM glutamine, 1% nonessential amino acids, 50 units/ml penicillin, and 50 μg/ml streptomycin, in the presence or absence of 10 mM nicotinamide (NA) (Sigma, St. Louis, Mo., USA). In some experiments the medium used was Neurobasal™ medium (Gibco) supplemented with N2 supplement (1:100) (Gibco) (NN medium), which was substituted after 1 week with DMEM/F12 (Gibco) supplemented with B27 (1:50) (Gibco).
(§2) Human ESCs were allowed to differentiate as free-floating clusters in KOM as above for up to six weeks in the presence of nicotinamide (NA) 10 mM. After the first week or 2 weeks of differentiation, cultures were supplemented with activin A 20-180 ng/ml (PeproTech Inc, Rocky Hill, N.J.), with TGFβ3 (1 ng/ml; R&D Systems Inc, Minneapolis, Minn.) with TGFβ1 (1 ng/ml-20 ng/ml; R&D Systems Inc) or with SB431542 (5 μM-50 μM, Sigma). Control cultures were supplemented with NA alone.
(§3) Human ESCs in suspension in KOM were also supplemented after one week with the bone morphogenetic protein (BMP) antagonist noggin (700 ng/ml R&D Systems Inc, Minneapolis, Minn.) in the presence and absence of NA, or during the 3rd and 4th weeks with TGFβ (20 ng/ml PeproTech Inc) in the presence of NA and allowed to differentiate up to an age of 6 weeks as free-floating clusters in suspension.

The test system of a further experiment is hESC clusters. As to the kind of experiment: RT-PCR and Real-time PCR of marker transcripts in differentiating hESC clusters. The class given is cell-based, human. As for the experimental part:
as §1, §2, §3
Total RNA was extracted from hESCs grown under serum-free conditions (1 week after passage), and at sequential time points up to 8 weeks during culturing of hESC-derived clusters in the presence or absence of 10 mM nicotinamide and with or without supplementation with TGFβ-superfamily growth factors or antagonists. The RNA was isolated using TRIzol reagent (Invitrogen, http://www.invitrogen.com) or TRI-Reagent (Sigma). cDNA synthesis was carried out using Moloney murine leukemia virus reverse transcriptase (M-MLV RT) and random primers, according to the manufacturer's instructions (Promega Corporation, Madison, Wis., http://www. promega.com). Polymerase chain reaction (PCR) was carried out using standard protocols with Taq DNA Polymerase (Gibco-BRL). Amplification conditions were as follows: denaturation at 94° C. for 15 seconds, annealing at 55° C. for 30 seconds, and extension at 72° C. for 45 seconds. The number of cycles varied between 18 and 40, depending on particular mRNA abundance. Primer human sequences for identifying human gene transcripts (forward and reverse 5′-3′) and the length of the amplified products were as follows (SEQ ID NOs. 1-12):
For Real-time PCR the levels of transcripts were monitored using TaqMan primers and probes that were derived from the commercially available TaqMan® Assays-on-Demand Gene Expression Products (Applied Biosystems, Foster City, Calif.): Oct4, ID Hs01895061; Musashi, ID Hs01045894; Pax6, ID Hs00240871; Six3, ID Hs00193667; Rx1, ID Hs00429459; Chx10, ID Hs01584048; MiTF-A, ID Hs01115553; MiTF-total, ID Hs01115557; Bestrophin, ID Hs00188249; RPE65, ID Hs00165642; Sox10, ID Hs00366918; Crx, ID Hs00230899. Quantitative PCR analysis was performed using an ABI Prism 7000HT and ABI Prism 7900HT Sequence Detection Systems and TaqMan® Universal PCR Master Mix (Applied Biosystems) according to the manufacturer's protocol. Housekeeping gene β-glucuronidase (GusB, assay ID Hs99999908) was selected as an internal reference for normalization in the Real-Time RT-PCR quantification analysis and the relative expression level of each gene is shown as a relative value when the expression level of day 0 (or untreated cells) was set at 1. Amplification reactions were carried out in duplicates or triplicates according to manufacturer's protocol (Applied Biosystems).
Background: Quantitative PCR measures a nucleic acid by following its amplification.

Setting [1] is: 4 weeks, NA with activin A vs NA without activin A.
Where [2] appears, read: Q-PCR time course, 2 weeks activin A treatment with NA vs NA alone.
Where [3] appears, read: TGFβ3 added in presence of NA, 6 weeks.

For “TGFβ1: transforming growth factor-β protein subtype, member of the TGFβ superfamily”, the “appearance of clusters harboring pigmented cells” value in the experiment on hESCs is “significantly enhanced”.

As to activin A, in the experiment with hESCs (setting [1]), the “percentage of clusters that included pigmented cells” value is given as 50.7±6.5% and the “percentage of pigmented cells from the total number of cells” value stood at 9.9±1.4%. Moreover, the “concentration with optimal augmenting effect on percentage of pigmented cells and expression of Bestrophin and RPE65” value in the experiment with hESCs (activin A studied at various concentrations, in presence of NA) was 140 ng/mL. In addition, the “pigmentation of clusters of pigmented cells” value with hESCs (developed in presence of activin A and NA vs NA alone) was “darker”. The “increase of the percentage of pigmented cells in presence of activin A” value in the experiment with hESCs (in presence of NA) is given as 5-6 folds. In the experiment with hESC clusters (6 weeks, in presence of NA, vs NA alone), the “expression of MiTF-A with activin A supplementation” value was “not affected”. In the experiment on hESC clusters (6 weeks, in presence of NA, vs NA alone (FIG. 4D)), the “increase of RPE65 expression by activin A treatment” value is “over five-fold”. Also, in the experiment with hESC clusters (6 weeks, in presence of NA, vs NA alone (FIG. 4E)), the “increase of Bestrophin expression by activin A treatment” value was “over four-fold”. Also, in the experiment with hESC clusters (setting [2]), the “expression of RPE marker Bestrophin” value was “significantly increased”, the “expression of retinal progenitor marker Chx10” value was “significantly increased” and the “expression of retinal progenitor marker Rx1” value is given as “significantly increased”. In the experiment with hESC clusters (at 4 weeks of differentiation, activin A with NA vs NA alone), the “expression level of total MiTF-isoforms” value was “increased”. For the same molecule, the “increase of bestrophin expression in presence of activin A” value with hESC clusters (in presence of NA) is “about 10 folds”.

For the molecule `NC(=O)c1ccc(-c2nc(-c3ccc4c(c3)OCO4)c(-c3ccccn3)[nH]2)cc1` [SB431542], the “appearance of pigmented clusters” value with hESCs (4 weeks, added together with activin A and NA) is “significantly decreased”.

As for bFGF: basic FGF, the “appearance of clusters harboring pigmented cells” value in the experiment with hESCs is given as “abolished”.

B1: TGFβ3: transforming growth factor-β protein subtype, member of the TGFβ superfamily (protein, UniProt P10600 301-412, looked up)
Transforming growth factor …: ALDTNYCFRNLEENCCVRPLYIDFRQDLGWKWVHEPKGYYANFCSGPCPYLRSADTTHSTVLGLYNTLNPEASASPCCVPQDLEPLTILYYVGRTPKVEQLSNMVVKSCKCS
modifications: Transforming growth factor beta-3
notes: transforming growth factor-β protein subtype, member of the TGFβ superfamily
As for B1, in the experiment on hESC clusters (setting [3]), the “expression levels of RPE65” value is “but not of RPE65” and the “expression levels of transcripts of MiTF-A” value is recorded as “significantly augmented”.

B2: noggin: bone morphogenetic protein (BMP) antagonist (protein, UniProt Q13253 28-232, looked up)
Noggin: QHYLHIRPAPSDNLPLVDLIEHPDPIFDPKEKDLNETLLRSLLGGHYDPGFMATSPPEDRPGGGGGAAGGAEDLAELDQLLRQRPSGAMPSEIKGLEFSEGLAQGKKQRLSKKLRRKLQMWLWSQTFCPVLYAWNDLGSRFWPRYVKVGSCFSKRSCSVPEGMVCKPSKSVHLTVLRWRCQRRGGQRCGWIPIQYPIISECKCSC
Take B2: the “differentiation of hESC clusters into pigmented RPE cells” value in the experiment on hESCs (noggin, absence of NA, 6 weeks) is recorded as “blocked”. In addition, the “differentiation into pigmented cells” value in the experiment with hESCs (noggin, medium also supplemented with NA, 6 weeks) is listed as “blocked”. Also, the “expression of MiTF-A” value with hESC clusters (noggin, both presence and absence of NA, Real-Time RT-PCR) is reported as “significantly reduced”.
